Results on 8 compounds are retold here after publication PMC6411960, “Discovery of Novel Androgen Receptor Ligands by Structure-based Virtual Screening and Bioassays” (Genomics, Proteomics & Bioinformatics, 2019).

Read-outs that look alike come from different tables or passages of the source.

The term EC50 denotes the concentration that produces a half-maximal response. What is called inhibition is how much of the control response was suppressed. A higher inhibition goes with strong suppression. The term IC50 denotes the concentration needed to halve the response being measured.

The subject of data set [1] is AR transcriptional activity. Briefly: LNCaP-ARR2PB-eGFP transcriptional activity assay, antagonist mode (with DHT). The format is cell-based. Particulars: for EC50: read-out: Antagonistic EC50; for effect on eGFP expression: 10 µM compound in the presence of 1 nM DHT, versus DHT control.
In another data set the test system is LNCaP cells. The experiment in a line: MTT cell proliferation assay, LNCaP. The format is cell-based. Particulars: for inhibition at 10 µM: Homo sapiens, LNCaP cell line, compound at 10 μM; for effect on growth of LNCaP cells: various concentrations; for change in cell viability / decrease in cell viability: 30 µM, versus cells not treated; for change in cell viability: P = 0.0001. Here is the method: 3-(4,5-Dimethythiazol-2-yl)-2,5-diphenyl-2-H-tetrazolium bromid (MTT) colorimetric assay was utilized to evaluate cell proliferation, which can reflect the bioactivity and cytotoxicity of test compounds at cellular level. […] After incubation at 37 °C for 24 h, cells were treated with serial dilutions of indicated compounds (and 1 nM DHT for LNCaP culture) and incubated for another 3 days. Afterward, 10 μl of 5 mg/ml MTT solution was added into each well and further incubated for another 4 h. Then, 100 μl of triplex 10% SDS-0.1% HCl-PBS solutions were added to dissolve the formazan deposited on the bottom of the plates and the plates were then further retained in incubator overnight. The absorbance at 570 nm was measured with the reference wavelength at 650 nm with a spectrophotometer (Bioteck Eon, Winooski, VT).

For data set [2], the system named is AR transcriptional activity. The experiment in a line: LNCaP-ARR2PB-eGFP transcriptional activity assay, agonist mode (without DHT). The format is cell-based. On the procedure:
1 nM DHT was added for background fluorescence. In addition, cells receiving equal volume of DMSO solution with (dark gray bar) or without (light gray bar) DHT served as controls too. […] C. […] The test concentrations range from 0.001 nM to 10 µM. DHT served as the positive control. Assays were performed in triplicate. Multiple group comparisons were analyzed with 1-way ANOVA (**, P < 0.05 were considered statistically significant).
The agonistic effects of the screened compounds were analyzed by stimulating the cell growth of LNCaP-ARR2PB-eGFP without prior addition of DHT. Cells were incubated with various concentrations of HBP1-3, HBP1-17, HBP1-38, and HBP1-51, respectively, ranging from 1 × 10^−3 nM to 1 × 10^4 nM (Figure 4C).
A cell line of LNCaP that stably expresses eGFP under the regulation of an androgen response element was generated to investigate the agonist/antagonist activity of the selected compounds as previously described, [34]. […] For lentiviral infection, LNCaP cells were plated and proliferated to a confluence of 60% before adding 5 ml of the collected lentivirus. Medium was refreshed 16 h later and cells were incubated for another two days. GFP expression in the transfected cell was examined with a fluorescent microscope. Subsequently, the infected cells were cultured in complete medium containing 1 μg/ml puromycin. This procedure was repeated for three cycles in the next subculture process to adequately eliminate the non-transfected clones. Cells surviving the screening process were AR-regulated eGFP-expressing LNCaP cells (LNCaP-ARR2PB-eGFP) and were cultured for subsequent antagonist/agonist assay.

The target in the next data set is T1, AR-LBD (Homo sapiens, UniProt P10275).
T1 sequence (P10275 669-900 limits assumed): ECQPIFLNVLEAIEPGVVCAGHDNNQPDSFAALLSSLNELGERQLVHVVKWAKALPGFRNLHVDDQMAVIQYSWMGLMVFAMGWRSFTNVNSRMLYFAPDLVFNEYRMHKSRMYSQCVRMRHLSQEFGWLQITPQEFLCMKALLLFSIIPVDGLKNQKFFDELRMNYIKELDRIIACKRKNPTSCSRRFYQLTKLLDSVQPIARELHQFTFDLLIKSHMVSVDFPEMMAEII
Briefly: PolarScreen AR competitor assay (fluorescence polarization). The format is binding. Particulars: competition with Flu-AR ligand; for EC50: gradient concentrations 0.1–100 µM, read-out: Binding EC50; for IC50: 0.1–100 µM, read-out: IC50, binding to AR-LBD. (Fluorescence polarisation rises when a labelled molecule tumbles more slowly, as on binding a larger partner.)

The subject of a further data set is C4-2 cells. The experiment in a line: MTT cell proliferation assay, C4-2. The data set is classed as cell-based. Conditions: for reduction of cell viability: C4-2, 30 µM, versus cells without treatment. From the text: We further tested C4-2, an androgen-independent AR^+ PCa cell line, which is more malignant than LNCaP. […] Given inhibitory effect was only observed at higher concentrations, it remains to be addressed whether the inhibition is attributed to AR blocking or the inherent toxicities of the tested compounds. We thus tested these compounds on DU145, an AR^− PCa cell line.
3-(4,5-Dimethythiazol-2-yl)-2,5-diphenyl-2-H-tetrazolium bromid (MTT) colorimetric assay was utilized to evaluate cell proliferation, which can reflect the bioactivity and cytotoxicity of test compounds at cellular level. PCa cells were cultured in 1640 RPMI media containing 5% charcoal-stripped serum (CSS) at a density of 5000 cells per well for LNCaP, 1000 cells per well for C4-2, and 2000 cells per well for DU145 in 96-well plates. After incubation at 37 °C for 24 h, cells were treated with serial dilutions of indicated compounds (and 1 nM DHT for LNCaP culture) and incubated for another 3 days. Afterward, 10 μl of 5 mg/ml MTT solution was added into each well and further incubated for another 4 h. Then, 100 μl of triplex 10% SDS-0.1% HCl-PBS solutions were added to dissolve the formazan deposited on the bottom of the plates and the plates were then further retained in incubator overnight. The absorbance at 570 nm was measured with the reference wavelength at 650 nm with a spectrophotometer (Bioteck Eon, Winooski, VT).
Background: Formazan colour is commonly taken as a measure of viable cells.

Setting [3] is: without DHT, 1 × 10^−3 nM to 1 × 10^4 nM.
Setting [4] is: LNCaP-ARR2PB-eGFP, in the presence of DHT.

Turning to `CC(O)(CS(=O)(=O)c1ccc(F)cc1)C(=O)Nc1ccc(C#N)c(C(F)(F)F)c1` (centres unmarked) [Bic, bicalutamide, reference compound], the EC50 in data set [1] was 0.69 ± 0.085 µM. Further, the inhibition at 10 µM with LNCaP cells turned out to be 16.5 ± 1%. Also, the “effect on growth of LNCaP cells” value with LNCaP cells (LNCaP) is on record as “reduced the growth of LNCaP cells in a dose-dependent manner”.

Take `C[C@]12CCC(=O)C[C@@H]1CC[C@@H]1[C@@H]2CC[C@]2(C)[C@@H](O)CC[C@@H]12` [DHT, dihydrotestosterone, reference compound]: in data set [2], the “agonistic effect on eGFP expression” value is reported as “upregulated eGFP expression in a dose-dependent manner”.

Regarding `CNC(=O)c1ccc(N2C(=S)N(c3ccc(C#N)c(C(F)(F)F)c3)C(=O)C2(C)C)cc1F` [Enz, enzalutamide, reference compound], the “effect on growth of LNCaP cells” value in the data set with LNCaP cells (LNCaP) is recorded as “reduced the growth of LNCaP cells in a dose-dependent manner”.

Consider `Nc1ccc2c(c1)C(=O)N(c1cccc3ccccc13)C2=O` [HBP1-3], for which the “effect on eGFP expression” value in data set [1] is “did not show obvious effect on eGFP expression”. On AR-LBD, the EC50 is more than 30 µM. The compound also registered an inhibition at 10 µM in the data set on LNCaP cells of 7.8 ± 4.4%. Moreover, in the data set on LNCaP cells (LNCaP), the “change in cell viability” value was “significant decrease in cell viability”. Also, the “agonistic effect on eGFP expression” value in data set [2] (setting [3]) is listed as “did not cause notable change”. The “reduction of cell viability” value in the data set on C4-2 cells was determined as 12%.

For the compound `O=C(CC1C(=O)NCCN1Cc1cccc2ccccc12)NCCn1ccc2ccccc21` (centres unmarked) [HBP1-17], the “effect on eGFP expression” value in data set [1] is given as “did not show obvious effect on eGFP expression”. Besides, the EC50 at AR-LBD is more than 30 µM. The compound also displayed an inhibition at 10 µM in the data set with LNCaP cells of 7.8 ± 4.1%. In addition, in the data set with LNCaP cells (LNCaP), the “decrease in cell viability” value is listed as not below 20%. The “agonistic effect on eGFP expression” value in data set [2] (setting [3]) is “did not cause notable change”. Further, the “reduction of cell viability” value with C4-2 cells was determined as 10%.

For the compound `COc1ccc(CC2(CCC(=O)NCCn3ccc4ccccc43)CCC(=O)N2)c2ccccc12` (centres unmarked) [HBP1-38], in data set [1], the “effect on eGFP expression” value was “promoted eGFP expression”. For the same compound, the 50% effective concentration (EC50) on AR-LBD is more than 30 µM. In the data set with LNCaP cells, the inhibition at 10 µM amounted to 18.6 ± 4.7%. Besides, the “inhibitory effect on LNCaP growth” value in the data set on LNCaP cells (LNCaP, 10 µM) is “inhibitory effect comparable to Bic”. Besides, the “decrease in cell viability” value in the data set on LNCaP cells (LNCaP) was not below 40%. For the same compound, the “agonistic effect on eGFP expression” value in data set [2] (setting [3]) was “did not cause notable change”. In addition, the “reduction of cell viability” value with C4-2 cells is recorded as approximately 40%.

On to `Cc1cc(O)nc2ccc(S(=O)(=O)Nc3ccc(O)cc3)cc12` [HBP1-51], for which, in data set [1], the “effect on eGFP expression” value is listed as “promoted eGFP expression”. Also, the “Antagonistic EC50” value in data set [1] (setting [4]) is reported as “Agonist”. In addition, at AR-LBD, the IC50 was determined as 3.96 µM and the EC50 worked out at 3.96 µM. For the same compound, the “effect on growth of LNCaP cells” value with LNCaP cells (LNCaP) is reported as “did not show apparent inhibition tendency”. Moreover, in data set [2] (setting [3]), the “agonistic effect on eGFP expression” value is recorded as “dose-dependent upregulation of GFP expression”. In the data set on C4-2 cells (C4-2, all tested concentrations, versus untreated cells, not significant (P = 0.14)), the “maximum increase of cell viability” value is “below 20%”.

As for `Cc1ccccc1NCC(=O)N/N=C/c1ccc(-c2ccc(Cl)c(Cl)c2)o1` [HBP1-58], in data set [1], the “effect on eGFP expression” value is “significantly reduced eGFP expression”. Also, the figures for the EC50 (in data set [1] (setting [4]); on AR-LBD) were 3.25 ± 0.43 µM and 4.92 µM, respectively. In addition, the IC50 in data set [1] (LNCaP-ARR2PB-eGFP, with DHT, read-out: IC50, antagonistic effect on AR transcriptional activity) turned out to be 3.25 ± 0.43 µM; on AR-LBD it was 4.92 µM. The compound also showed an inhibition at 10 µM with LNCaP cells of 2.2 ± 0.8%. Moreover, in the data set on LNCaP cells (LNCaP), the “change in cell viability” value is on record as “significant decrease in cell viability”.
